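Cells were grown in 96-well plates and exposed to each compound for 48 hours at five concentrations; endpoints were interpolated linearly between bracketing concentrations, or set to the highest concentration if not reached. GI50: concentration for 50% inhibition of growth. Definition used: TGI = concentration required for complete inhibition of growth.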
Experiments:
Test in all cases: NCI anticancer screen, dose series, 48 h
[1] = test system: A498 renal
[2] = test system: A549 NSCLC
[3] = test system: ACHN renal
[4] = test system: BT-549 breast
[5] = test system: CAKI-1 renal
[6] = test system: CCRF-CEM leukemia
[7] = test system: COLO 205 colon
[8] = test system: DU-145 prostate
[9] = test system: EKVX NSCLC
[10] = test system: HCC-2998 colon
[11] = test system: HCT-116 colon
[12] = test system: HCT-15 colon
[13] = test system: HL-60(TB) leukemia
[14] = test system: HOP-62 NSCLC
[15] = test system: HOP-92 NSCLC
[16] = test system: HS 578T breast
[17] = test system: HT29 colon
[18] = test system: IGROV1 ovarian
[19] = test system: K-562 leukemia
[20] = test system: KM12 colon
[21] = test system: LOX IMVI melanoma
[22] = test system: M14 melanoma
[23] = test system: MALME-3M melanoma
[24] = test system: MCF7 breast
[25] = test system: MDA-MB-231 breast
[26] = test system: MDA-MB-435
[27] = test system: MOLT-4 leukemia
[28] = test system: NCI-H226 lung
[29] = test system: NCI-H23 lung
[30] = test system: NCI-H460 lung
[31] = test system: NCI-H522 lung
[32] = test system: NCI/ADR-RES ovarian
[33] = test system: OVCAR-3 ovarian
[34] = test system: OVCAR-4 ovarian
[35] = test system: OVCAR-5 ovarian
[36] = test system: OVCAR-8 ovarian
[37] = test system: PC-3 prostate
[38] = test system: RPMI-8226 leukemia
[39] = test system: RXF 393 renal
[40] = test system: SF-268 CNS
[41] = test system: SF-295 CNS
[42] = test system: SF-539 CNS
[43] = test system: SK-MEL-2 melanoma
[44] = test system: SK-MEL-28 melanoma
[45] = test system: SK-MEL-5 melanoma
[46] = test system: SK-OV-3 ovarian
[47] = test system: SN12C renal
[48] = test system: SNB-75 CNS
[49] = test system: SR leukemia
[50] = test system: SW-620 colon
[51] = test system: T-47D breast
[52] = test system: TK-10 renal
[53] = test system: U251 CNS
[54] = test system: UACC-257 melanoma
[55] = test system: UACC-62 melanoma
[56] = test system: UO-31 renal

Structure (SMILES): CCCCN1CCN(c2ccc3nc(-c4ccc5nc(-c6ccc(OC)c(OC)c6)[nH]c5c4)[nH]c3c2)CC1
- GI50 [1]: 0.894 µM
- TGI [1]: 2.36 µM
- GI50 [2]: 1.17 µM
- TGI [2]: 3.32 µM
- GI50 [3]: 2.27 µM
- TGI [3]: 12.4 µM
- GI50 [4]: 1.27 µM
- TGI [4]: 2.69 µM
- GI50 [5]: 0.49 µM
- TGI [5]: 3.98 µM
- GI50 [6]: 0.434 µM
- TGI [6]: 2.05 µM
- GI50 [7]: 0.173 µM
- TGI [7]: 1.36 µM
- GI50 [8]: 0.754 µM
- TGI [8]: 4.04 µM
- GI50 [9]: 2.14 µM
- TGI [9]: > 100 µM
- GI50 [10]: 1.04 µM
- TGI [10]: 2.4 µM
- GI50 [11]: 0.285 µM
- TGI [11]: 1.45 µM
- GI50 [12]: 3.29 µM
- TGI [12]: 30 µM
- GI50 [13]: 0.646 µM
- TGI [13]: 2.95 µM
- GI50 [14]: 1.06 µM
- TGI [14]: 5.07 µM
- GI50 [15]: 1.52 µM
- TGI [15]: 6.64 µM
- GI50 [16]: 1.3 µM
- TGI [16]: 4.31 µM
- GI50 [17]: 0.389 µM
- TGI [17]: 1.98 µM
- GI50 [18]: 1.29 µM
- TGI [18]: 3.39 µM
- GI50 [19]: 0.28 µM
- TGI [19]: 1.89 µM
- GI50 [20]: 1.37 µM
- TGI [20]: 3.13 µM
- GI50 [21]: 0.366 µM
- TGI [21]: 1.31 µM
- GI50 [22]: 0.213 µM
- TGI [22]: 1.52 µM
- GI50 [23]: 0.0734 µM
- TGI [23]: 1.27 µM
- GI50 [24]: 0.196 µM
- TGI [24]: 1.56 µM
- GI50 [25]: 1.54 µM
- TGI [25]: 3.1 µM
- GI50 [26]: 0.599 µM
- TGI [26]: 2 µM
- GI50 [27]: 0.903 µM
- TGI [27]: 3.84 µM
- GI50 [28]: 1.34 µM
- TGI [28]: 2.97 µM
- GI50 [29]: 0.617 µM
- TGI [29]: 2.03 µM
- GI50 [30]: 0.616 µM
- TGI [30]: 1.55 µM
- GI50 [31]: 0.258 µM
- TGI [31]: 1.52 µM
- GI50 [32]: > 100 µM
- TGI [32]: > 100 µM
- GI50 [33]: 0.428 µM
- TGI [33]: 1.95 µM
- GI50 [34]: 0.334 µM
- TGI [34]: 1.88 µM
- GI50 [35]: 2.32 µM
- TGI [35]: 6.09 µM
- GI50 [36]: 0.435 µM
- TGI [36]: 2.17 µM
- GI50 [37]: 1.16 µM
- TGI [37]: 3.29 µM
- GI50 [38]: 0.458 µM
- TGI [38]: 2.12 µM
- GI50 [39]: 0.917 µM
- TGI [39]: 2.15 µM
- GI50 [40]: 1.35 µM
- TGI [40]: 6.64 µM
- GI50 [41]: 0.647 µM
- TGI [41]: 3.54 µM
- GI50 [42]: 1.22 µM
- TGI [42]: 2.63 µM
- GI50 [43]: 1.32 µM
- TGI [43]: 2.77 µM
- GI50 [44]: 0.857 µM
- TGI [44]: 2.24 µM
- GI50 [45]: 0.599 µM
- TGI [45]: 2.13 µM
- GI50 [46]: 1.43 µM
- TGI [46]: 6.34 µM
- GI50 [47]: 0.738 µM
- TGI [47]: 3.66 µM
- GI50 [48]: 0.18 µM
- TGI [48]: 3.84 µM
- GI50 [49]: 0.308 µM
- TGI [49]: 1.38 µM
- GI50 [50]: 0.306 µM
- TGI [50]: 1.76 µM
- GI50 [51]: 0.399 µM
- TGI [51]: 2.85 µM
- GI50 [52]: 1.12 µM
- TGI [52]: 3.44 µM
- GI50 [53]: 1.05 µM
- TGI [53]: 2.26 µM
- GI50 [54]: 0.537 µM
- TGI [54]: 2.39 µM
- GI50 [55]: 0.431 µM
- TGI [55]: 1.94 µM
- GI50 [56]: 8.04 µM
- TGI [56]: > 39.9 µM

— PubChem BioAssay (NCI)
